Reference: patent US20230146593A1, “METHOD FOR TREATMENT AND PROPHYLAXIS OF CRS IN PATIENTS COMPRISING A COMBINATION OF BISPECIFIC ANTIBODIES BINDING TO CDS X CANCER CELL AND TNF ALPHA OR IL-6 INHIBITOR” (AMGEN INC., priority 2020, published 2023)

How the values were obtained:
[1] = tested on: Adult patients with R/R AML (CRS); details: human, in vivo
TNF = TNF levels in patients after blinatumomab in cycle 1; assay type: in vivo, human
[2] = tested on: VCAM-1 on endothelial cells (HUVEC); assay: Blinatumumab VCAM assay: VCAM-1 on CD31+ HUVEC in co-culture with T cells and NALM-6 cells (flow cytometry); assay type: cell-based, human; details: co-culture of HUVEC, isolated T cells and NALM-6 target cells
Description: FIG. 7. VCAM-1 Expression on HUVEC in AMG 103 Co-culture Assays: VCAM-1 expression by flow cytometry. […] expression levels are expressed as Median Fluorescence Intensity (MFI). VCAM-1 expressing HUVEC are expressed as percentage of CD31+ HUVEC. Error bars indicate the standard error of the mean of duplicate measurements. Two PBMC donors were used in this experiment.
The effect of blinatumumab (AMG 103) on T cell activation and the induction of VCAM-1 on endothelial cells was analyzed in co-cultures of HUVEC, isolated T cells and CD19-expressing NALM-6 target cells. VCAM-1 expression on CD31+ HUVEC was analyzed by flow cytometry.

| CRS events per patient [1] [per patient] | average duration of CRS events [1] | Compound | time to maximum TNF levels (TNF) [h] | VCAM-1 expression on CD31+ HUVEC [2] |
| --- | --- | --- | --- | --- |
| 2.3 | (b) average duration: 58 hrs | C[C@@H]1C[C@H]2[C@@H]3CCC4=CC(=O)C=C[C@]4(C)[C@@]3(F)[C@@H](O)C[C@]2(C)[C@@]1(O)C(=O)CO [dexamethasone] | – | – |
| – | – | blinatumomab | ≤ 2 | up-regulated |
